Measured values: patent US20260216196A1, “IMIDAZO[1,2-A]PYRIDINE AND IMIDAZO[1,2-A]PYRAZINE DERIVATIVES AS MLLT1 AND MLLT3 INHIBITORS” (DARK BLUE THERAPEUTICS LTD., priority 2022, published 2026)
Structures can show the parent of a compound that is named as a salt.

What was measured:
MLLT3 = MLLT3 (Homo sapiens, UniProt P42568); experiment: HTRF IC50 determination assay, MLLT3 / H3K9cro peptide displacement; settings: MLLT3 assay IC50 (nM), 6His tagged MLLT3, biotinylated H3K9cro peptide, compound 20 μM to 20 nM, 11 data points in duplicate
MLLT1 = MLLT1 (Homo sapiens, UniProt Q03111); experiment: biochemical; settings: MLLT1 assay IC50 (nM), HTRF, 6His tagged MLLT1, biotinylated H3K9cro peptide; compound 20 μM to 20 nM, 11 data points in duplicate
MLLT1, sequence (Q03111 whole entry): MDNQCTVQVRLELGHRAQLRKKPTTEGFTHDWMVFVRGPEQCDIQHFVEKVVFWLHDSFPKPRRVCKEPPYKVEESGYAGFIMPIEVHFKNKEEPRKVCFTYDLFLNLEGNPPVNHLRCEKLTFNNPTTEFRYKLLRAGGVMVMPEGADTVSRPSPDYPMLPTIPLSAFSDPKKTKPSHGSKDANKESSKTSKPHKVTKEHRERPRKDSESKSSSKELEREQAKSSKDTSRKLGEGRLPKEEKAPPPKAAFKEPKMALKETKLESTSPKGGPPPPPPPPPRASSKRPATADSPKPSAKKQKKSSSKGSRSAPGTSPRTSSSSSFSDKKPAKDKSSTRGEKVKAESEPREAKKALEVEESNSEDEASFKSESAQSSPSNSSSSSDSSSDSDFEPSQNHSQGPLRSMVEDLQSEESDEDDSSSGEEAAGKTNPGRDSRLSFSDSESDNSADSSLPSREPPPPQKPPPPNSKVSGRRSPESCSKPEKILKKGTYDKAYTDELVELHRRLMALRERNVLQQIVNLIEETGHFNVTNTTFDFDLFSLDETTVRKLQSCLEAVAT

MLLT3, sequence (P42568 whole entry): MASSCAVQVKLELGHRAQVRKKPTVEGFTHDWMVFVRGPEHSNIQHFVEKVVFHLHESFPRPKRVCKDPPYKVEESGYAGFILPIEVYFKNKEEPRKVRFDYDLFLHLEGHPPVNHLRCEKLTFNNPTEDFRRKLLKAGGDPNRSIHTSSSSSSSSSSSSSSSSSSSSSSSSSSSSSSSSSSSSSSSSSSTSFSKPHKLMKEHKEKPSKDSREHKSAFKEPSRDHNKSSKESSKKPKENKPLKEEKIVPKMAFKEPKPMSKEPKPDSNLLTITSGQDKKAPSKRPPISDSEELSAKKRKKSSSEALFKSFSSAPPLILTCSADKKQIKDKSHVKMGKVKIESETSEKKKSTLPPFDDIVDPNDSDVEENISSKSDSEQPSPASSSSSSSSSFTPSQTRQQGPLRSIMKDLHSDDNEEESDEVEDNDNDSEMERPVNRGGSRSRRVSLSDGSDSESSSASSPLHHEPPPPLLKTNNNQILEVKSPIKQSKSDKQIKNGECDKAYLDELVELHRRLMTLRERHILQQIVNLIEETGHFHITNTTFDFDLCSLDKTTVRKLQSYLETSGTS

Compound | IC50 (MLLT3) [nM] | IC50 (MLLT1) [nM]
CN1CCCC1c1cn2cc(NC(=O)c3ccc4c(c3)c(C3CCNC3)nn4C)ccc2n1 (racemic) [Example 56, rac-1-methyl-N-(2-(1-methylpyrrolidin-2-yl)imidazo[1,2-a]pyridin-6-yl)-3-(pyrrolidin-3-yl)-1H-indazole-5-carboxamide formate] | 150 to 1500 | 150 to 1500
CC1CCC(c2cn3cc(NC(=O)c4ccc5c(cnn5C)c4)ccc3n2)N1C (racemic) [Example 63, rac-N-[2-(1,5-dimethylpyrrolidin-2-yl)imidazo[1,2-a]pyridin-6-yl]-1-methyl-1H-indazole-5-carboxamide] | 1500 to 20000 | 1500 to 20000
CC1CC(c2cn3cc(NC(=O)c4ccc5c(cnn5C)c4)ccc3n2)N(C)C1 (racemic) [Example 64, rac-N-[2-(1,4-dimethylpyrrolidin-2-yl)imidazo[1,2-a]pyridin-6-yl]-1-methyl-1H-indazole-5-carboxamide] | 150 to 1500 | 150 to 1500
COC1CC(c2cn3cc(NC(=O)c4ccc5c(cnn5C)c4)ccc3n2)N(C)C1 (racemic) [Example 65, rac-N-[2-(4-methoxy-1-methylpyrrolidin-2-yl)imidazo[1,2-a]pyridin-6-yl]-1-methyl-1H-indazole-5-carboxamide] | 1500 to 20000 | 150 to 1500
CN1CCCC1c1cn2cc(NC(=O)c3ccc4cc(F)ccc4c3)ccc2n1 (single isomer, unassigned) [Example 5] | 150 to 1500 | 150 to 1500
CN1CCCC1c1cn2cc(NC(=O)c3ccc4cc(F)ccc4c3)ccc2n1 (single isomer, unassigned) [Example 6] | 1500 to 20000 | 1500 to 20000
CN1CCCC1c1cn2cc(NC(=O)c3ccc(-c4cncs4)cc3F)ccc2n1 (single isomer, unassigned) [Example 7] | 1500 to 20000 | 1500 to 20000
CN1CCCC1c1cn2cc(NC(=O)c3ccc(-c4cncs4)cc3F)ccc2n1 (single isomer, unassigned) [Example 8] | 150 to 1500 | 150 to 1500
CN1CCCC1c1cn2cc(NC(=O)c3ccc(-c4cnccn4)cc3F)ccc2n1 (single isomer, unassigned) [Example 19] | 1500 to 20000 | 150 to 1500
CN1CCCC1c1cn2cc(NC(=O)c3ccc(-c4ncccn4)cc3F)ccc2n1 (single isomer, unassigned) [Example 20] | 1500 to 20000 | 1500 to 20000
CN1CCCC1c1cn2cc(NC(=O)c3ccc(-c4cnn(C)c4)cc3F)ccc2n1 (single isomer, unassigned) [Example 21] | 150 to 1500 | 150 to 1500
Cc1ncsc1-c1ccc(C(=O)Nc2ccc3nc(C4CCCN4C)cn3c2)c(F)c1 (single isomer, unassigned) [Example 22] | 1500 to 20000 | 150 to 1500
Cc1ncc(-c2ccc(F)c(C(=O)Nc3ccc4nc(C5CCCN5C)cn4c3)c2)s1 (single isomer, unassigned) [Example 23] | 150 to 1500 | 150 to 1500
CN1CCCC1c1cn2cc(NC(=O)c3cc(-c4cnccn4)ccc3F)ccc2n1 (single isomer, unassigned) [Example 24] | 1500 to 20000 | 150 to 1500
Cc1ncc(-c2ccc(C(=O)Nc3ccc4nc(C5CCCN5C)cn4c3)c(F)c2)s1 (single isomer, unassigned) [Example 25] | 150 to 1500 | 150 to 1500
CN1CCCC1c1cn2cc(NC(=O)c3cc4ccncc4cc3F)ccc2n1 (single isomer, unassigned) [Example 26] | 150 to 1500 | 150 to 1500
CN1CCCCC1c1cn2cc(NC(=O)c3ccc4c(cnn4C)c3)ccc2n1 (single isomer, unassigned) [Example 27] | > 20000 | 1500 to 20000
CN1CCCCC1c1cn2cc(NC(=O)c3ccc4c(cnn4C)c3)ccc2n1 (single isomer, unassigned) [Example 28] | 150 to 1500 | 150 to 1500
CN1CCCC1c1cn2cc(NC(=O)c3ccc4c(cnn4C)c3)ccc2n1 (single isomer, unassigned) [Example 59] | 1500 to 20000 | 1500 to 20000
CN1CCCC1c1cn2cc(NC(=O)c3ccc4c(cnn4C)c3)ccc2n1 (single isomer, unassigned) [Example 60] | 150 to 1500 | < 150
CN1CCCC1c1cn2cc(NC(=O)c3ccc4scnc4c3)ccc2n1 (centres unmarked) [Example 41] | 150 to 1500 | 150 to 1500
CN1C2CCCCC2C[C@@H]1c1cn2cc(NC(=O)c3ccc4c(cnn4C)c3)ccc2n1 (stereo partly drawn) [Example 58, 1-methyl-N-{2-[(2R)-1-methyl-octahydro-1H-indol-2-yl]imidazo[1,2-a]pyridin-6-yl}-1H-indazole-5-carboxamide] | 150 to 1500 | 150 to 1500
CN1C[C@@H](F)C[C@@H]1c1cn2cc(NC(=O)c3ccc4c(cnn4C)c3)ncc2n1 [Example 83, N-{2-[(2R,4S)-4-fluoro-1-methylpyrrolidin-2-yl]imidazo[1,2-a]pyrazin-6-yl}-1-methylindazole-5-carboxamide] | 150 to 1500 | 150 to 1500
Cc1nc(NC(=O)c2cc3cnn(C)c3cc2F)cn2cc([C@H]3CCCN3C)nc12 [Example 91, 6-fluoro-1-methyl-N-{8-methyl-2-[(2R)-1-methylpyrrolidin-2-yl]imidazo[1,2-a]pyrazin-6-yl}indazole-5-carboxamide] | 150 to 1500 | < 150
Cc1nc(NC(=O)c2cc3cnn(C)c3cc2Cl)cn2cc([C@H]3CCCN3C)nc12 [Example 92, (R)-6-chloro-1-methyl-N-(8-methyl-2-(1-methylpyrrolidin-2-yl)imidazo[1,2-a]pyrazin-6-yl)-1H-indazole-5-carboxamide] | 1500 to 20000 | 1500 to 20000

Further lines, results first:

IC50 (MLLT3) [nM] | IC50 (MLLT1) [nM] | Compound
1500 to 20000 | 150 to 1500 | Cc1nn(C)c2cc(C(=O)Nc3cn4cc(C5CCCN5C)nc4cc3F)ccc12 (racemic) [Example 57, rac-N-[7-fluoro-2-(1-methylpyrrolidin-2-yl)imidazo[1,2-a]pyridin-6-yl]-1,3-dimethyl-1H-indazole-6-carboxamide]
1500 to 20000 | 1500 to 20000 | COCCN1CCCC1c1cn2cc(NC(=O)c3ccc4c(C)nn(C)c4c3)ccc2n1 (racemic) [Example 62, rac-N-{2-[1-(2-methoxyethyl)pyrrolidin-2-yl]imidazo[1,2-a]pyridin-6-yl}-1,3-dimethyl-1H-indazole-6-carboxamide]
150 to 1500 | 150 to 1500 | CN1CCCC1c1cn2cc(NC(=O)c3ccc4c(cnn4C)c3)ncc2n1 (racemic) [Example 68, rac-1-methyl-N-[2-(1-methylpyrrolidin-2-yl)imidazo[1,2-a]pyrazin-6-yl]-1H-indazole-5-carboxamide]
150 to 1500 | < 150 | Cc1nn(C)c2cc(C(=O)Nc3cn4cc(C5CC(C(C)(C)C)CN5C)nc4cn3)ccc12 (racemic) [Example 84, rac-N-[2-(4-tert-butyl-1-methylpyrrolidin-2-yl)imidazo[1,2-a]pyrazin-6-yl]-1,3-dimethylindazole-6-carboxamide]
150 to 1500 | 150 to 1500 | Cc1nn(C)c2cc(C(=O)Nc3cn4cc(C5CN(C)CCN5C)nc4cn3)ccc12 (single isomer, unassigned) [Example 67]
1500 to 20000 | 1500 to 20000 | Cc1nn(C)c2cc(C(=O)Nc3cn4cc([C@@H]5CCCN5C)nc4cn3)ccc12 (single isomer, unassigned) [Example 69]
1500 to 20000 | 1500 to 20000 | Cc1nn(C)c2cc(C(=O)Nc3cn4cc(C5CC(C)(C)CN5C)nc4cn3)ccc12 (single isomer, unassigned) [Example 81]
< 150 | < 150 | Cc1nn(C)c2cc(C(=O)Nc3cn4cc(C5CC(C)(C)CN5C)nc4cn3)ccc12 (single isomer, unassigned) [Example 82]
150 to 1500 | 150 to 1500 | CCN1CCCC1c1cn2cc(NC(=O)c3ccc4c(C)nn(C)c4c3)ncc2n1 (single isomer, unassigned) [Example 87, N-{2-[(rel-2R)-1-ethylpyrrolidin-2-yl]imidazo[1,2-a]pyrazin-6-yl}-1,3-dimethylindazole-6-carboxamide]
1500 to 20000 | 1500 to 20000 | CCN1CCCC1c1cn2cc(NC(=O)c3ccc4c(C)nn(C)c4c3)ncc2n1 (single isomer, unassigned) [Example 88, N-{2-[(rel-2S)-1-ethylpyrrolidin-2-yl]imidazo[1,2-a]pyrazin-6-yl}-1,3-dimethylindazole-6-carboxamide]
150 to 1500 | 150 to 1500 | Cc1nn(C)c2cc(C(=O)Nc3cn4cc([C@H]5CCCN5C)nc4cn3)ccc12 [Example 70, 1,3-dimethyl-N-{2-[(2R)-1-methylpyrrolidin-2-yl]imidazo[1,2-a]pyrazin-6-yl}-1H-indazole-6-carboxamide]
150 to 1500 | 150 to 1500 | CN1CCC[C@@H]1c1cn2cc(NC(=O)c3ccc4c(C5CC5)nn(C)c4c3)ncc2n1 [Example 71, 3-cyclopropyl-1-methyl-N-{2-[(2R)-1-methylpyrrolidin-2-yl]imidazo[1,2-a]pyrazin-6-yl}-1H-indazole-6-carboxamide]
150 to 1500 | 150 to 1500 | CCc1nn(C)c2cc(C(=O)Nc3cn4cc([C@H]5CCCN5C)nc4cn3)ccc12 [Example 72, 3-ethyl-1-methyl-N-{2-[(2R)-1-methylpyrrolidin-2-yl]imidazo[1,2-a]pyrazin-6-yl}-1H-indazole-6-carboxamide]
150 to 1500 | 150 to 1500 | Cc1nn(C)c2cc(C(=O)Nc3cn4cc([C@H]5CCCN5C)nc4cn3)c(F)cc12 [Example 73, 5-fluoro-1,3-dimethyl-N-{2-[(2R)-1-methylpyrrolidin-2-yl]imidazo[1,2-a]pyrazin-6-yl}-1H-indazole-6-carboxamide]
1500 to 20000 | 150 to 1500 | Cc1nn(C)c2cc(C(=O)Nc3cn4cc([C@H]5CCCN5)nc4cn3)ccc12 [Example 76, 1,3-dimethyl-N-[2-[(2R)-pyrrolidin-2-yl]imidazo[1,2-a]pyrazin-6-yl]indazole-6-carboxamide]
